Laboratory results: ChEMBL document CHEMBL1135023, “A lipophilic thioflavin-T derivative for positron emission tomography (PET) imaging of amyloid in brain” (Bioorg Med Chem Lett, 2002)

What was measured:
[1] = Octanol-water partition at pH 7.4; type: physicochemical
[2] = tested on: Mus musculus; test: Compound was tested in vivo for mouse brain uptake after 2 min; Mouse brain uptake per g; type: functional, organism-based
[3] = tested on: Mus musculus; test: Compound was tested in vivo for mouse brain uptake after 30 min; Mouse brain uptake per g; type: functional, organism-based
[4] = Ratio of 2-30 min mouse brain uptakes per g was determined; type: functional
[5] = In vitro binding using synthetic aggregated Abeta(1-40) fibrils

| logD [1] | SMILES | ID/g [2] [%] | ID/g [3] [%] | Ratio [4] | Ki [5] [nM] |
| --- | --- | --- | --- | --- | --- |
| 0.57 | Cc1ccc2c(c1)sc(-c1ccc(N(C)C)cc1)[n+]2C | – | – | – | – |
| 2.7 | CNc1ccc(-c2nc3ccccc3s2)cc1 | 12.9 | 1.7 | – | – |

| SMILES | logD [1] | ID/g [2] [%] | ID/g [3] [%] | Ratio [4] | Ki [5] [nM] |
| --- | --- | --- | --- | --- | --- |
| CNc1ccc(-c2nc3ccc(C)cc3s2)cc1 | 3.4 | 7.6 | 2.8 | 2.7 | 10 |
